Tests used:
Squalene synthase = target: T1, Squalene synthase (Homo sapiens, UniProt P37268); assay: Inhibitory activity against squalene synthase (SQS) obtained from HepG2 cells; assay type: cell-based
T1 sequence (P37268 whole entry): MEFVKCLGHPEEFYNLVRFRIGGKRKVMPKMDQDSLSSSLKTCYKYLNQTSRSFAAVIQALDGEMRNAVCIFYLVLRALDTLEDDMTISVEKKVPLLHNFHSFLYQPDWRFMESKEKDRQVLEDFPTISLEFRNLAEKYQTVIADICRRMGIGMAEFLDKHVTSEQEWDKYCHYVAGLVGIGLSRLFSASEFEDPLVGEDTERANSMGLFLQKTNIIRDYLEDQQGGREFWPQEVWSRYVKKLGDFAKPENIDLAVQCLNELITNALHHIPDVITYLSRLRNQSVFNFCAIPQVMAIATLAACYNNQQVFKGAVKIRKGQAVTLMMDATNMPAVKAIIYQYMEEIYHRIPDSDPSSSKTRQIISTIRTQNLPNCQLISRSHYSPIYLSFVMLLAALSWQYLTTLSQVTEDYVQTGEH

[1] = Area under the curve for compound was evaluated in dog at a dose of 20 mg/kg.; assay type: ADME, organism-based, Canis lupus familiaris; parameters: dose 20 mg/kg; settings: in vivo
[2] = Area under the curve for compound was evaluated in dog at a dose of 10 mg/kg.; assay type: ADME, organism-based, Canis lupus familiaris; parameters: dose 10 mg/kg; settings: in vivo

Row | SMILES | IC50 (Squalene synthase) [nM] | AUC [1] [ng·h/mL] | AUC [2] [ng·h/mL]
1 | C[C@@H](CC(=O)O)CC(=O)N[C@@H](C)[C@H](/C=C/c1ccc2ccccc2c1)Cc1ccc(Cl)c(Cl)c1 | 2.5 | 54000 | 
2 | C[C@@H](CC(=O)O)CC(=O)N[C@@H](C)[C@@H](Cc1ccc(Cl)c(Cl)c1)c1ccc(-c2ccccc2)c(F)c1 | 3.9 |  | 9900
3 | C[C@H](NC(=O)C[C@@H](CC(=O)O)C(=O)O)[C@@H](Cc1ccc(Cl)c(Cl)c1)c1ccc(-c2ccccc2)c(F)c1 |  | 900 | 

Reference: ChEMBL document CHEMBL1151575, “J-104,123, a novel and orally-active inhibitor of squalene synthase: Stereoselective synthesis and cholesterol lowering effects in dogs” (Bioorg Med Chem Lett, 1996)
